The nature of the series: Water solubility of sulfentrazone as a function of pH. It is filed as physicochemical.

Data on 1 molecule can be found in US20120264603A1, “ATTACHMENT AND RETENTION FORMULATIONS FOR BIOLOGICALLY ACTIVE ORGANIC COMPOUNDS” (priority 2010, published 2012).

Each structure is given as a SMILES string.

`Cc1nn(-c2cc(NS(C)(=O)=O)c(Cl)cc2Cl)c(=O)n1C(F)F` [sulfentrazone]: the solubility in water entry by setting is: (at 7.5 pH) “soluble in water”; (pH ~5) “sparingly soluble in water”.
